Measured values reported in US9062051B2, “Compounds and pharmaceutical compositions thereof for the treatment of proliferative disorders” (GALAPAGOS NV, priority 2014, dated 2015).

Experiments:
Type in all cases: biochemical
[1] = target: T1, Recombinant EphB2 (Homo sapiens, UniProt P29323); assay: EphB2 assay (33P incorporation into poly GT, filter plate); conditions: read-out: EphB2 potency IC50
T1 construct: purchased Carna 08-129
T1 sequence (P29323 19-986 isoform P29323-2 limits assumed): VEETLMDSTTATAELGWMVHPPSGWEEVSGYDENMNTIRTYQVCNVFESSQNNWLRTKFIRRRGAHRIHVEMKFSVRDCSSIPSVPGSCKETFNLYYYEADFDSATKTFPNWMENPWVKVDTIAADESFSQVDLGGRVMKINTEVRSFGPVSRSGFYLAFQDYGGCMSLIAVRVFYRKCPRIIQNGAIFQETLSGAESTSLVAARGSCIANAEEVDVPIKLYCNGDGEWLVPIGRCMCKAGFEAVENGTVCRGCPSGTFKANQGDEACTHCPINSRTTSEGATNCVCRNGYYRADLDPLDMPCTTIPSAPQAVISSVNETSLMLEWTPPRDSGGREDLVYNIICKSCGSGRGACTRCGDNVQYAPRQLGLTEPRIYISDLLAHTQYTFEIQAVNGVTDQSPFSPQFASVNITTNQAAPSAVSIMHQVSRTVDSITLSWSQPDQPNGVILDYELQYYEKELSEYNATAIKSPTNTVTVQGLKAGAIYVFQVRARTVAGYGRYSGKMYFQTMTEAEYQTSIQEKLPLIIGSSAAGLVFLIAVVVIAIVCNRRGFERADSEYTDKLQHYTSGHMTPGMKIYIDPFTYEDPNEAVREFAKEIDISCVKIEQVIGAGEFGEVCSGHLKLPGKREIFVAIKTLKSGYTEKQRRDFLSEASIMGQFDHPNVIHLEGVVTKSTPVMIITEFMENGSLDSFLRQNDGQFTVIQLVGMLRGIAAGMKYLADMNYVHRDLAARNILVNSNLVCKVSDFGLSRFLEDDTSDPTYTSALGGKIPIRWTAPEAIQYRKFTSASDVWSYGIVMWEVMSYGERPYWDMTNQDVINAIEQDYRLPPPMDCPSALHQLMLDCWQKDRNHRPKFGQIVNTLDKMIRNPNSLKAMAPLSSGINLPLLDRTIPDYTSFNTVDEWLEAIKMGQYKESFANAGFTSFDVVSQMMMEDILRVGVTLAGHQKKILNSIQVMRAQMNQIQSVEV
Method: (§1) The principle of the assay consists of the measurement of incorporated ^33P into the substrate poly GT when phosphorylated by the enzyme EphB2 using [^33P]-γ-ATP and ATP. Unincorporated ^33P is removed by loading the samples on a filter plate (using a harvester, Perkin Elmer) and 6 subsequent washing steps. ^33P incorporated in polyGT is measured on a Topcount after addition of microscint to the filter plates (Perkin Elmer).
Recombinant EphB2 (Carna Cat#08-129, 0.6 ng per well) was incubated with 0.05 mg/mL Poly(Glu,Tyr)sodium salt (4:1), MW 20 000-50 000 (Sigma catalog number P0275) in kinase reaction buffer (10 mM MOPS pH 7.2, 5 mM DTT, 0.01% Triton-X100, 5 mM MnCl2, 0.5 mM Na3VO4, 5 mM beta-glycerolphosphate), 0.5 μM non-radioactive ATP, 0.25 μCi/25 μl ^33P-gamma-ATP (Perkin Elmer, catalog number NEG602K) final concentrations with or without 5 μL containing test compound or vehicle (DMSO, 1% final concentration), in a total volume of 25 μL, in a polypropylene 96-well plate (Greiner, V-bottom). After 45 min at 30° C., reactions were stopped by adding of 25 μL/well of 150 mM phosphoric acid. The experiment was then conducted as described for EphA7. The ability of a test compound to inhibit the kinase activity was determined using counts per minutes (cpm) measured by the Topcount as:
(§2) Cpm (cpd): cpm determined for sample with test compound present
(§3) Cpm (control): cpm determined for sample with positive control inhibitor (10 μM staurosporine)
(§4) Cpm (vehicle): cpm determined in the presence of vehicle (1% DMSO)
(§5) Dose dilution series were prepared for the compounds enabling the testing of dose-response effects in the EphB2 assay and the calculation of the IC50 for each compound. Each compound was routinely tested at concentration of 20 μM followed by a 1/5 serial dilution, 10 points in a final concentration of 1% DMSO. When potency of compound series increased, more dilutions may be prepared and/or the top concentration may be lowered (e.g. 5 μM, 1 μM).

[2] = target: T2, Recombinant EphA7 (Homo sapiens, UniProt Q15375); assay: EphA7 assay (33P incorporation into poly GT, filter plate); conditions: EphA7 potency; 0.15 μM ATP; read-out: IC50
T2 construct: purchased Carna 08-126
Method: as §1, with “EphA7” for “EphB2”
Recombinant EphA7 (Carna Cat#08-126, 2 ng per well) was incubated with 0.1 mg/mL Poly(Glu,Tyr)sodium salt (4:1), MW 20 000-50 000 (Sigma catalog number P0275) in kinase reaction buffer (10 mM MOPS pH 7.2, 5 mM DTT, 0.01% Triton-X100, 5 mM MnCl2, 0.5 mM Na3VO4, 5 mM beta-glycerolphosphate), 0.15 μM non-radioactive ATP, 0.125 μCi/25 μl ^33P-gamma-ATP (Perkin Elmer, catalog number NEG602K) final concentrations with or without 5 μL containing test compound or vehicle (DMSO, 1% final concentration), in a total volume of 25 μL, in a polypropylene 96-well plate (Greiner, V-bottom). After 90 min at 30° C., reactions were stopped by adding of 25 μL/well of 150 mM phosphoric acid. All of the terminated kinase reaction was transferred to prewashed (75 mM phosphoric acid) 96 well filter plates (Perkin Elmer catalog number 6005177) using a cell harvester (Perkin Elmer). Plates were washed 6 times with 300 μL per well of a 75 mM phosphoric acid solution and the bottom of the plates was sealed. 40 μL/well of Microscint-20 was added, the top of the plates was sealed and readout was performed using the Topcount (Perkin Elmer). The ability of a test compound to inhibit the kinase activity was determined using counts per minutes (cpm) measured by the Topcount as:
as §2, §3, §4
as §5, with “EphA7” for “EphB2”

[3] = target: T3, EphA2 (UniProt Ref: P29317) (Homo sapiens, UniProt P29317); assay: EphA2 assay (Reaction Biology HotSpot radioactive kinase assay); conditions: ATP 10 μM; read-out: EphA2 potency IC50
T3 construct: purchased Reaction Biology
Method: Inhibition of EphA2 (UniProt Ref: P29317) by a test compound is determined by a commercially available Reaction Biology proprietary nanoliter radioactive HotSpot^SM assay (Reaction Biology, One great valley parkway, Suite 2, Malvern Pa., 19355, USA). The principle of the assay consists of the measurement of incorporated ^33P into poly[Glu:Tyr] (4:1) (0.2 mg/mL) when the substrate is phosphorylated by the enzyme using [^33P]-γ-ATP and ATP (10 μM).
To determine the IC50, a serial dilution of compound is tested starting from 10, or 3 μM (highest dilution) with a 1/3 dilution.

T2 sequence (Q15375 579-998 limits assumed): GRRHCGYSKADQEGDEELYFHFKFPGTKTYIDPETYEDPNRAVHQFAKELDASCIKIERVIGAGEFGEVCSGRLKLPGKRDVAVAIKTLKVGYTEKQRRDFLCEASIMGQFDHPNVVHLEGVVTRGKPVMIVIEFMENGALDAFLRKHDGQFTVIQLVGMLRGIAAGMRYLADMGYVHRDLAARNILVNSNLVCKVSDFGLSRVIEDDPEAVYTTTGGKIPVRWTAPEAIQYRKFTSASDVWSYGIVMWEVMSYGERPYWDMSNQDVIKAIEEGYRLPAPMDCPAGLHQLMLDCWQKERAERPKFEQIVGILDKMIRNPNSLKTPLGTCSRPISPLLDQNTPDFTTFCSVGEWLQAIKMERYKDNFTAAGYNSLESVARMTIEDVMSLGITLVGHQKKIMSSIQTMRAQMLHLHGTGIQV
T3 sequence (P29317 24-976): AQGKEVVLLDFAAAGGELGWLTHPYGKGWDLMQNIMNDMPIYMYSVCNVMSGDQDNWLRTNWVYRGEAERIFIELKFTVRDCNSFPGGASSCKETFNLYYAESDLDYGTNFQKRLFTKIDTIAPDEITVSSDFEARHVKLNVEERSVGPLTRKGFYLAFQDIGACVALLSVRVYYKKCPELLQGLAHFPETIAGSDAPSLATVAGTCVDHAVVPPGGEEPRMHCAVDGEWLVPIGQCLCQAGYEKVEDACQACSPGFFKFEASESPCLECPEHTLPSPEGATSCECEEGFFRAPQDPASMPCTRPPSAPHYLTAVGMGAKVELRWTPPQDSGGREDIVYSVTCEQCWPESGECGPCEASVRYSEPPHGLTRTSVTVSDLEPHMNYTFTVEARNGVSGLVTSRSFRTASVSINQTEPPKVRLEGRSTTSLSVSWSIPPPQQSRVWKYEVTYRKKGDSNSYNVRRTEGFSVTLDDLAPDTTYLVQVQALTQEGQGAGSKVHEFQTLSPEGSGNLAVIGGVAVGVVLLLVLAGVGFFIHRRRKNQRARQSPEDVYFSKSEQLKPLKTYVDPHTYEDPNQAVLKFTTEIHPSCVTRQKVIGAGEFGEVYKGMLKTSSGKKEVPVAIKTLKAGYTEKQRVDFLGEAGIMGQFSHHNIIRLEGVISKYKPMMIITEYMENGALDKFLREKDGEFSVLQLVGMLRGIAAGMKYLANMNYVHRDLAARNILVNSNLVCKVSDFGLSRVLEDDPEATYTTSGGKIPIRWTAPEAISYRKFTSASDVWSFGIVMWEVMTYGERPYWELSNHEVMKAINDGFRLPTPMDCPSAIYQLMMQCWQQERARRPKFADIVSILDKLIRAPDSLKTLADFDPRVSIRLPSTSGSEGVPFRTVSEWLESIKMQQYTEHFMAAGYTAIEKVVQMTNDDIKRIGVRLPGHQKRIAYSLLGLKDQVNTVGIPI

Compound | IC50 [1] [nM] | IC50 [2] [nM] | IC50 [3] [nM]
Cc1cc(OCCN2CCOCC2)cc(C(=O)Nc2ccc(C)c(-c3ccc4c(C(C)O)n[nH]c4n3)c2)c1 (stereo not shown) [Compound 28, N-{3-[3-(1-Hydroxy-ethyl)-1H-pyrazolo[3,4-b]pyridin-6-yl]-4-methyl-phenyl}-3-methyl-5-(2-morpholin-4-yl-ethoxy)-benzamide] | 0.01 to 25 | > 1000 | 25 to 50
CCc1n[nH]c2nc(-c3cc(NC(=O)c4cc(C)cc(OCCN)c4)ccc3C)ccc12 [Compound 30, 3-(2-Amino-ethoxy)-N-[3-(3-ethyl-1H-pyrazolo[3,4-b]pyridin-6-yl)-4-methyl-phenyl]-5-methyl-benzamide] | 0.01 to 25 | 250 to 500 | 0.01 to 25
CCc1n[nH]c2nc(-c3cc(NC(=O)c4cc(C)cc(OCCCN)c4)ccc3C)ccc12 [Compound 31, 3-(3-Amino-propoxy)-N-[3-(3-ethyl-1H-pyrazolo[3,4-b]pyridin-6-yl)-4-methyl-phenyl]-5-methyl-benzamide] | 0.01 to 25 | 0.01 to 250 | 0.01 to 25
COc1cc(OC)cc(C(=O)Nc2cnc(C)c(-c3ccc4c(C5CC5)n[nH]c4n3)c2)c1 [Compound 34, N-(5-(3-cyclopropyl-1H-pyrazolo[3,4-b]pyridin-6-yl)-6-methylpyridin-3-yl)-3,5-dimethoxybenzamide] | 0.01 to 25 | > 1000 | 
CCc1n[nH]c2nc(-c3cc(NC(=O)c4cc(OCCN5CCOCC5)cc(C(F)(F)F)c4)ccc3C)ccc12 [Compound 36, N-[3-(3-Ethyl-1H-pyrazolo[3,4-b]pyridin-6-yl)-4-methyl-phenyl]-3-(2-morpholin-4-yl-ethoxy)-5-trifluoromethyl-benzamide] | > 100 | 500 to 1000 | 0.01 to 25
CCc1n[nH]c2nc(-c3cc(NC(=O)c4cc(OC)cc(C5CC5)c4)cnc3C)ccc12 [Compound 38, 3-Cyclopropyl-N-[5-(3-ethyl-1H-pyrazolo[3,4-b]pyridin-6-yl)-6-methyl-pyridin-3-yl]-5-methoxy-benzamide] | > 100 | 250 to 500 | 0.01 to 25
CCc1n[nH]c2nc(-c3cc(NC(=O)c4cc(OC)cc(OCCN5CCOCC5)c4)cnc3C)ccc12 [Compound 40, N-[5-(3-Ethyl-1H-pyrazolo[3,4-b]pyridin-6-yl)-6-methyl-pyridin-3-yl]-3-methoxy-5-(2-morpholin-4-yl-ethoxy)-benzamide] | > 100 | > 1000 | 
CCc1n[nH]c2nc(-c3cc(NC(=O)c4cccc(C(F)(F)F)c4)cnc3C)ccc12 [Compound 42, N-[5-(3-Ethyl-1H-pyrazolo[3,4-b]pyridin-6-yl)-6-methyl-pyridin-3-yl]-3-trifluoromethyl-benzamide] | > 100 | > 1000 | 50 to 100
CCc1n[nH]c2nc(-c3cc(NC(=O)c4cc(OC)cc(OCCCN)c4)ccc3C)ccc12 [Compound 45, 3-(3-Amino-propoxy)-N-[3-(3-ethyl-1H-pyrazolo[3,4-b]pyridin-6-yl)-4-methyl-phenyl]-5-methoxy-benzamide] | 0.01 to 25 | 250 to 500 | 0.01 to 25
CCc1n[nH]c2nc(-c3cc(NC(=O)c4cc(OC)cc(OCCCN)c4)cnc3C)ccc12 [Compound 46, 3-(3-Amino-propoxy)-N-[5-(3-ethyl-1H-pyrazolo[3,4-b]pyridin-6-yl)-6-methyl-pyridin-3-yl]-5-methoxy-benzamide] | 25 to 50 | 500 to 1000 | 0.01 to 25
Cc1ccc(NC(=O)c2cccc(C(F)(F)F)c2)cc1-c1ccc2c([C@@H](C)O)n[nH]c2n1 [Compound 56, N-{3-[3-((R)-1-Hydroxy-ethyl)-1H-pyrazolo[3,4-b]pyridin-6-yl]-4-methyl-phenyl}-3-trifluoromethyl-benzamide] | 0.01 to 25 | > 1000 | 0.01 to 25
